≈ marks a conversion by molar mass, not a printed value.
What was measured:
Moraxella catarrhalis = assay: Antibacterial activity against Moraxella catarrhalis A-894 by broth microdilution method; type: functional
[1] = Inhibition of Haemophilus influenzae DNA gyrase subunit GyrA/GyrB supercoiling activity expressed in Escherichia coli BL21 (DE3) using relaxed pBR322 DNA as substrate after 1 hr mins by agarose gel electrophoresis
[2] = Inhibition of Escherichia coli DNA gyrase subunit GyrA/GyrB R136H mutant supercoiling activity expressed in Escherichia coli BL21 (DE3) using relaxed pBR322 DNA as substrate after 1 hr mins by agarose gel electrophoresis
[3] = Inhibition of Escherichia coli N-terminal His6-tagged DNA gyrase subunit GyrA/GyrB supercoiling activity expressed in Escherichia coli BL21 (DE3) using relaxed pBR322 DNA as substrate after 1 hr by agarose gel electrophoresis
Staphylococcus aureus [4] = assay: Antibacterial activity against methicillin-sensitive Staphylococcus aureus A-1178 infected in neutropenic mouse assessed as change in bacterial burden in thighs at 30 mg/kg, po administered every 2.75 hrs for 2 times measured 6.5 hrs post infection; type: functional
[5] = Inhibition of Streptococcus pneumoniae DNA topoisomerase 4 subunit ParC/ParE relaxation expressed in Escherichia coli BL21 (DE3) using supercoiled pBR322 DNA as substrate after 1 hr mins by agarose gel electrophoresis
[6] = Inhibition of Escherichia coli DNA topoisomerase 4 subunit ParC/ParE relaxation expressed in Escherichia coli BL21 (DE3) using supercoiled pBR322 DNA as substrate after 1 hr by agarose gel electrophoresis
Streptococcus pneumoniae [7] = assay: Antibacterial activity against Streptococcus pneumoniae ATCC 49619 by broth microdilution method; type: functional
Staphylococcus aureus [8] = assay: Antibacterial activity against methicillin/fluoroquinolone-resistant Staphylococcus aureus A-798 harboring topoisomerase gyrA S84L mutant/grlA S80F/Glu84V mutant by broth microdilution method; type: functional
[9] = Inhibition of fluoroquinolone-resistant Staphylococcus aureus clinical isolate DNA gyrase subunit GyrB/GyrA S84L mutant supercoiling activity using relaxed pBR322 DNA as substrate after 1 hr by agarose gel electrophoresis
[10] = Inhibition of Haemophilus influenzae DNA topoisomerase 4 subunit ParC/ParE relaxation expressed in Escherichia coli BL21 (DE3) using supercoiled pBR322 DNA as substrate after 1 hr mins by agarose gel electrophoresis
Enterococcus faecium = assay: Antibacterial activity against vancomycin/fluoroquinolone-resistant Enterococcus faecium A-949 harboring topoisomerase gyrA E88K mutant/parC S80R mutant by broth microdilution method; type: functional
[11] = Inhibition of Streptococcus pneumoniae DNA gyrase subunit GyrA/GyrB supercoiling activity expressed in Escherichia coli BL21 (DE3) using relaxed pBR322 DNA as substrate after 1 hr mins by agarose gel electrophoresis
Enterococcus faecalis = assay: Antibacterial activity against Enterococcus faecalis ATCC 29212 by broth microdilution method; type: functional
Streptococcus pyogenes = assay: Antibacterial activity against Streptococcus pyogenes ATCC 19615 by broth microdilution method; type: functional
[12] = biological target: DNA topoisomerase 2-alpha (Homo sapiens, UniProt P11388); assay: Inhibition of human DNA topoisomerase 2-alpha
DNA topoisomerase 2-alpha, sequence (P11388 whole entry): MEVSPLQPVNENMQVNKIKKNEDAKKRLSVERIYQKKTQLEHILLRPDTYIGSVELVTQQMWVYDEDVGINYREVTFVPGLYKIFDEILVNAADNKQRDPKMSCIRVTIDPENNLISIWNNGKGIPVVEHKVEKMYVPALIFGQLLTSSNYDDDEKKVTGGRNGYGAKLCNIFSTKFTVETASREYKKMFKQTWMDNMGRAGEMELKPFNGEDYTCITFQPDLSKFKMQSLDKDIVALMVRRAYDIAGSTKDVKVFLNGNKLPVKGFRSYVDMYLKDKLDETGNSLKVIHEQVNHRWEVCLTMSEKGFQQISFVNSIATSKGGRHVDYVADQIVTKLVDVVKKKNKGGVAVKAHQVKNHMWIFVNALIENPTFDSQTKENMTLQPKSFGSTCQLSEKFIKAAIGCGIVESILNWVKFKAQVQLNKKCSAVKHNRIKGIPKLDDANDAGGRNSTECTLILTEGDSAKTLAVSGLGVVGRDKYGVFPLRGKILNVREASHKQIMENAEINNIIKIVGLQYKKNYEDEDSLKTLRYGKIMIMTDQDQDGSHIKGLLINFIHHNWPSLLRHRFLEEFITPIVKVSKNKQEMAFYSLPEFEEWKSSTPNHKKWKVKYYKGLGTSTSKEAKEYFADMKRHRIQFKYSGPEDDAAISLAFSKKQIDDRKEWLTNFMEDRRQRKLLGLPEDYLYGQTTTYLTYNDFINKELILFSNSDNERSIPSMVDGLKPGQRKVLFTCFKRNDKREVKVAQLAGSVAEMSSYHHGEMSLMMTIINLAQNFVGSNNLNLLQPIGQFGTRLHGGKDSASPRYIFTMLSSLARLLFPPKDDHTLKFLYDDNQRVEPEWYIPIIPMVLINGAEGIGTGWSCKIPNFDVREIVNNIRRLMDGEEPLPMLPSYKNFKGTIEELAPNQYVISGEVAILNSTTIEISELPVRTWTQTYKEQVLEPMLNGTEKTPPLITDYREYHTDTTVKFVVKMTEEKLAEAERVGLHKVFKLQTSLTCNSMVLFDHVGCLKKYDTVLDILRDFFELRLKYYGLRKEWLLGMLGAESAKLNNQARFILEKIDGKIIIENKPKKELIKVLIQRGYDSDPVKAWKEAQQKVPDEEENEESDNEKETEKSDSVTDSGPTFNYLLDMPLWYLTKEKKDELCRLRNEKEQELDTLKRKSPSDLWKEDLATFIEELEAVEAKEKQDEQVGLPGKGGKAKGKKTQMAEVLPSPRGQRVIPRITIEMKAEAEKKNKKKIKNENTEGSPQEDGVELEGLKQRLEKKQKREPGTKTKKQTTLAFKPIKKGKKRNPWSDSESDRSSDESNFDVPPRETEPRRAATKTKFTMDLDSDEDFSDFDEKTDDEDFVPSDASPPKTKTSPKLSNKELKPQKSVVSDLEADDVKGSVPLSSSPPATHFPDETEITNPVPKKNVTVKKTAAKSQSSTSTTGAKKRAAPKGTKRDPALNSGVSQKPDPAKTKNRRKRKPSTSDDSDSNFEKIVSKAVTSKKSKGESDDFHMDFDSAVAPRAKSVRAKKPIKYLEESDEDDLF

Streptococcus pneumoniae [13] = assay: Antibacterial activity against fluoroquinolone-resistant Streptococcus pneumoniae A-70 harboring topoisomerase gyrA S81F mutant/parc S79F mutant/parE I440V mutant by broth microdilution method; type: functional
Staphylococcus aureus [14] = assay: Antibacterial activity against Staphylococcus aureus ATCC 29213 by broth microdilution method; type: functional
Escherichia coli [15] = assay: Antibacterial activity against Escherichia coli ATCC 25922 by broth microdilution method; type: functional
[16] = Inhibition of Staphylococcus aureus topoisomerase 4 subunit ParC/ParE relaxation expressed in Escherichia coli BL21 (DE3) using supercoiled pBR322 DNA as substrate after 1 hr by agarose gel electrophoresis
DNA gyrase = DNA gyrase (Staphylococcus aureus, UniProt P0A0K8+P20831)
Description: Inhibition of Staphylococcus aureus N-terminal His6-tagged DNA gyrase subunit GyrA/GyrB supercoiling activity expressed in Escherichia coli BL21 (DE3) using relaxed pBR322 DNA as substrate after 1 hr by agarose gel electrophoresis

Haemophilus influenzae = assay: Antibacterial activity against Haemophilus influenzae A-921 by broth microdilution method; type: functional
Escherichia coli [17] = assay: Antibacterial activity against TolC deficient Escherichia coli by broth microdilution method; type: functional
hERG (KCNH2) = hERG (KCNH2) (Homo sapiens, UniProt Q12809); assay: Inhibition of human ERG expressed in CHO cells at 10 uM after 3 mins at -80 mV holding potential by Qpatch assay; type: cell-based; conditions: CHO cells expressing human ERG
hERG (KCNH2), sequence (Q12809 whole entry): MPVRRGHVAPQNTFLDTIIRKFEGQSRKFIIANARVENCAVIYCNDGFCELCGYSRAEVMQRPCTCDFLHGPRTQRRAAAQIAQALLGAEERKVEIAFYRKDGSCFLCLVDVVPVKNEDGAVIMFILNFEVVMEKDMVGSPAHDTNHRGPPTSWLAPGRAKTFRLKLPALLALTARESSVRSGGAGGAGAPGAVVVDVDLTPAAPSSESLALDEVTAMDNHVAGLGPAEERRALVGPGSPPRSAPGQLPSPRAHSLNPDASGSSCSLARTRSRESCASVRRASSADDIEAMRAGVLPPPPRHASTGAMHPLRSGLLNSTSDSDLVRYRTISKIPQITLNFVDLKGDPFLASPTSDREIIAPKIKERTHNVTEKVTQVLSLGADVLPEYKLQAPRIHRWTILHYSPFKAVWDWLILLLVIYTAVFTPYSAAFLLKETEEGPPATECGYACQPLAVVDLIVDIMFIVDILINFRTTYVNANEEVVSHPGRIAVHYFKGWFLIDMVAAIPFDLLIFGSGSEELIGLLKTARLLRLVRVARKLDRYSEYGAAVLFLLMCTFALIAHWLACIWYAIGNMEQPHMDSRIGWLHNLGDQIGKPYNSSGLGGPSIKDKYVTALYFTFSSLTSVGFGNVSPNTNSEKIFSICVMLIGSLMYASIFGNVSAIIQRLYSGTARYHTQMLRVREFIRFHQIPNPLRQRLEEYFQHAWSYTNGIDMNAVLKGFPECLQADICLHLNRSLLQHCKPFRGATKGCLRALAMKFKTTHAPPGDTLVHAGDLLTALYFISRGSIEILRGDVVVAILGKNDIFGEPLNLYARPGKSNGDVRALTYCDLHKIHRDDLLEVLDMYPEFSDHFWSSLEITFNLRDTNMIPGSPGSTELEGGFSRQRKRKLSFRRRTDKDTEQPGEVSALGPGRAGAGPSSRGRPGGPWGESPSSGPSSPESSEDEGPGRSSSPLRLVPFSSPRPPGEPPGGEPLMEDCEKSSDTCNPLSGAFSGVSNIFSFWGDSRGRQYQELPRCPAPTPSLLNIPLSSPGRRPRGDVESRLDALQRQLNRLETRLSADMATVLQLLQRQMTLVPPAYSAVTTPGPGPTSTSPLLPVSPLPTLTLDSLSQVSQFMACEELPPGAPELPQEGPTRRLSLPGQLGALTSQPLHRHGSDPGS

Staphylococcus aureus [18] = assay: Antibacterial activity against methicillin-sensitive Staphylococcus aureus A-1178 by broth microdilution method; type: functional
Mus musculus [19] = assay: Unbound AUC in mouse at 30 mg/kg, po after 24 hrs by LC-MS/MS analysis; type: ADME, organism-based; conditions: in vivo
[20] = Protein binding to mouse plasma by rapid equilibrium dialysis method; type: ADME, cell-free; conditions: read-out: PPB (converted)
[21] = AUC in mouse at 30 mg/kg, po after 24 hrs by LC-MS/MS analysis; type: ADME, organism-based; set-up: time < 24 hr, dose 30 mg/kg, route oral; conditions: in vivo
[22] = Octanol-phosphate buffer partition coefficient, logD of compound at pH 7.4 by LC/UV analysis; type: physicochemical
Staphylococcus aureus [23] = assay: Antibacterial activity against methicillin-sensitive Staphylococcus aureus A-1178 infected in neutropenic murine thigh infection model assessed as decrease in bacterial load in thighs administered po 22 hrs post infection measured 24 hrs post infection; type: functional, organism-based
Mus musculus [24] = assay: Unbound AUC in mouse at 100 mg/kg, po after 24 hrs by LC-MS/MS analysis; type: ADME, organism-based; conditions: in vivo
[25] = AUC in mouse at 100 mg/kg, po after 24 hrs by LC-MS/MS analysis; type: ADME, organism-based; set-up: time < 24 hr, dose 100 mg/kg, route oral; conditions: in vivo

MIC (Staphylococcus aureus [14])	IC50 [16]	IC50 (DNA gyrase)	SMILES	MIC (Moraxella catarrhalis)	IC50 [1]	IC50 [2]	IC50 [3]	Activity (Staphylococcus aureus [4])	IC50 [5]	IC50 [6]	MIC (Streptococcus pneumoniae [7])	MIC (Staphylococcus aureus [8])	IC50 [10]	MIC (Enterococcus faecium)	MIC (Enterococcus faecalis)	MIC (Streptococcus pyogenes)	MIC (Streptococcus pneumoniae [13])	MIC (Escherichia coli [15])	MIC (Haemophilus influenzae)	MIC (Escherichia coli [17])	also measured
0.5 µg/mL (≈ 1.14 µM)	128000 nM	8 nM	CCNC(=O)Nc1cc2c(-c3ccnc(C)c3)ccc(Cc3cccc(C(=O)O)c3)c2cn1				30 nM	-0.3 deltalog10CFU		> 256000 nM											
0.5 µg/mL (≈ 1.32 µM)	2000 nM	8 nM	CCNC(=O)Nc1cc2c(-c3ccnc(C)c3)ccc(CNC(C)=O)c2cn1					0 deltalog10CFU													inhibition at 0.05 h, 10 µM (hERG (KCNH2)): 4%; MIC (Staphylococcus aureus [18]): 0.5 µg/mL (≈ 1.32 µM); fAUC (Mus musculus [19]): 15 ng·h/mL; fraction unbound [20]: 0.123; AUC at 24 h [21]: 120 ng·h/mL; logD [22]: 2.6
			CC(=O)NC[C@H]1CN(c2ccc(N3CCOCC3)c(F)c2)C(=O)O1																		Activity (Staphylococcus aureus [23]): Dose-dependent effect
0.125 µg/mL (≈ 0.286 µM)	2000 nM	8 nM	CCNC(=O)Nc1cc2c(-c3ccnc(C)c3)ccc(CNC(=O)OCCOC)c2cn1					-1.3 deltalog10CFU													inhibition at 0.05 h, 10 µM (hERG (KCNH2)): 20%; MIC (Staphylococcus aureus [18]): 0.125 µg/mL (≈ 0.286 µM); fraction unbound [20]: 0.045; logD [22]: 3; fAUC (Mus musculus [24]): 630 ng·h/mL; AUC at 24 h [25]: 14000 ng·h/mL

SMILES	MIC (Staphylococcus aureus [14])	IC50 [16]	IC50 (DNA gyrase)	MIC (Moraxella catarrhalis)	IC50 [1]	IC50 [2]	IC50 [3]	Activity (Staphylococcus aureus [4])	IC50 [5]	IC50 [6]	MIC (Streptococcus pneumoniae [7])	MIC (Staphylococcus aureus [8])	IC50 [10]	MIC (Enterococcus faecium)	MIC (Enterococcus faecalis)	MIC (Streptococcus pyogenes)	MIC (Streptococcus pneumoniae [13])	MIC (Escherichia coli [15])	MIC (Haemophilus influenzae)	MIC (Escherichia coli [17])	also measured
C#CCOC(=O)NCc1ccc(-c2ccnc(C)c2)c2cc(NC(=O)NCC)ncc12	≤ 0.03 µg/mL	2000 nM	8 nM	0.25 µg/mL (≈ 0.599 µM)	30 nM	30 nM	30 nM	-3.9 deltalog10CFU	125 nM	8000 nM	0.5 µg/mL (≈ 1.2 µM)	≤ 0.03 µg/mL	2000 nM	1 µg/mL (≈ 2.4 µM)	0.25 µg/mL (≈ 0.599 µM)	0.25 µg/mL (≈ 0.599 µM)	0.5 µg/mL (≈ 1.2 µM)	> 16 µg/mL	1 µg/mL (≈ 2.4 µM)	0.5 µg/mL (≈ 1.2 µM)	IC50 [9]: < 4 nM; IC50 [11]: 2000 nM; IC50 [12]: > 256000 nM
O=C(O)c1cn(C2CC2)c2cc(N3CCNCC3)c(F)cc2c1=O [CIPROFLOXACIN]	0.25 µg/mL (≈ 0.754 µM)	8000 nM		0.03 µg/mL (≈ 0.0905 µM)	8000 nM	8000 nM	500 nM		32000 nM	8000 nM	1 µg/mL (≈ 3.02 µM)	> 16 µg/mL	2000 nM	> 16 µg/mL	1 µg/mL (≈ 3.02 µM)	0.25 µg/mL (≈ 0.754 µM)	> 16 µg/mL	≤ 0.03 µg/mL	≤ 0.03 µg/mL	≤ 0.03 µg/mL	
